The record followed here is patent US20230242530A1, “8-(AZETIDIN-1-YL)-[1,2,4]TRIAZOLO[1,5-A]PYRIDINYL COMPOUNDS, COMPOSITIONS AND METHODS OF USE THEREOF” (Genentech, Inc., priority 2016, published 2023).

Molecules are shown by their SMILES. pEC50, pKi: −log10 of the molar value. Some results are limits rather than exact numbers.

In experiment [1] the test system is JAK1-dependent STAT6 phosphorylation downstream of IL-13 stimulation in BEAS-2B cells. Nature of the experiment: JAK1 pathway assay in cell lines: IL-13 p-STAT6 BEAS-2B. Conditions: BEAS-2B human bronchial epithelial cells, 1 hr compound, IL-13 15 min, MSD readout. The class given is cell-based. In outline:
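Phospho-STAT6 read by MSD electrochemiluminescence in lysates of BEAS-2B cells kept in complete growth medium. Cells were pretreated 1 hr at 37 °C with compound (0.2% DMSO final) and stimulated 15 min with IL-13 at its EC90; EC50 is the concentration halving signal versus DMSO.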

Experiment [2] addresses T1, isolated recombinant JAK1 kinase domain (Homo sapiens, UniProt P23458).
T1 construct: isolated recombinant JAK1 and JAK2 kinase domain
Put plainly: JAK enzyme assay, JAK1 kinase domain (Caliper LabChip). The class given is biochemical. Conditions: 1.5 nM JAK1, ATP 25 μM, Morrison tight binding model. The gist of the method: (§1)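 Ki values were obtained by Morrison tight-binding analysis with ATP-competitive correction, Ki=Ki,app/(1+[ATP]/Km,app). Phosphorylated versus total fluorescent JAK3-derived peptide was quantified on a Caliper LabChip. Kinase reactions with the isolated recombinant domains ran 30 min at 22 °C before EDTA quench (50 mM final).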

The target of experiment [3] is T2, isolated recombinant JAK2 kinase domain (Homo sapiens, UniProt O60674).
T2 construct: isolated recombinant JAK1 and JAK2 kinase domain
T2 sequence (O60674 849-1124 limits assumed): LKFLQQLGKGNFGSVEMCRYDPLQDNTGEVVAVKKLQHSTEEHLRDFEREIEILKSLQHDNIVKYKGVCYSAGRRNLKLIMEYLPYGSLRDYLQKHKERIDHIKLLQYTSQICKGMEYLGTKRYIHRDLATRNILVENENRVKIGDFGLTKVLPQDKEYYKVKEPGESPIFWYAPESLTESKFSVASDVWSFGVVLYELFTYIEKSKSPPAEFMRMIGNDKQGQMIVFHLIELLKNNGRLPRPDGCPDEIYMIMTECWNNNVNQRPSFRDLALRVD
Nature of the experiment: JAK enzyme assay, JAK2 kinase domain (Caliper LabChip). It is filed as biochemical. Conditions: 0.2 nM JAK2, ATP 25 μM, Morrison tight binding model. In outline:
as §1

T1 sequence (P23458 875-1153 limits assumed): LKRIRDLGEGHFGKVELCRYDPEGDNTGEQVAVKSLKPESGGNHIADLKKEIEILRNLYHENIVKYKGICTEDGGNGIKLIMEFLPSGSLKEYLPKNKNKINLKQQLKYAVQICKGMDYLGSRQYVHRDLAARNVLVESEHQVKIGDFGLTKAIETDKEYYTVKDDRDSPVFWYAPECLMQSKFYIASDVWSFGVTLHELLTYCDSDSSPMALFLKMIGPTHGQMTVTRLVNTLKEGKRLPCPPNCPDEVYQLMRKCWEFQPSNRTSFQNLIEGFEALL

Compound `CN1CCN(C(=O)Cn2cc(Nc3nc4c(N5CC(CC#N)(n6cc(-c7ccccc7)cn6)C5)cccn4n3)cn2)CC1` [Example 21, formic acid;2-[1-[2-[[1-[2-(4-methylpiperazin-1-yl)-2-oxo-ethyl]pyrazol-4-yl]amino]-[1,2,4]triazolo[1,5-a]pyridin-8-yl]-3-(4-phenylpyrazol-1-yl)azetidin-3-yl]acetonitrile] had a pEC50 in experiment [1] of 7.37. Also, the negative logarithm of the Ki (pKi) in experiment [2] is 8.96; in experiment [3], 8.11.

On to `CSc1cc(C2(CC#N)CN(c3cccn4nc(Nc5cnn(CC(=O)N6CCN(C)CC6)c5)nc34)C2)ccc1F` [Example 79, 2-[3-(4-fluoro-3-methylsulfanyl-phenyl)-1-[2-[[1-[2-(4-methylpiperazin-1-yl)-2-oxo-ethyl]pyrazol-4-yl]amino]-[1,2,4]triazolo[1,5-a]pyridin-8-yl]azetidin-3-yl]acetonitrile], for which the pEC50 in experiment [1] is 7.80. Also, the pKi was 9.52 in experiment [2] and 9.15 in experiment [3].

On to `N#CCC1(n2cc(Br)cn2)CN(c2cccn3nc(Nc4cnn(CC(=O)N5CCC(N6CCOCC6)CC5)c4)nc23)C1` [Example 130, 2-[3-(4-bromopyrazol-1-yl)-1-[2-[[1-[2-(4-morpholino-1-piperidyl)-2-oxo-ethyl]pyrazol-4-yl]amino]-[1,2,4]triazolo[1,5-a]pyridin-8-yl]azetidin-3-yl]acetonitrile], for which, in experiment [1], the pEC50 was 6.93. Also, the pKi in experiment [2] is 9.40; in experiment [3] it was 8.96.

In experiment [1], `CCc1cnn(C2(CC#N)CN(c3cccn4nc(Nc5ccc(C(=O)N(C)CC6CCN(C)CC6)cc5)nc34)C2)c1` [Example 84, 4-[[8-[3-(cyanomethyl)-3-(4-ethylpyrazol-1-yl)azetidin-1-yl]-[1,2,4]triazolo[1,5-a]pyridin-2-yl]amino]-N-methyl-N-[(l-methyl-4-piperidyl)methyl]benzamide] gave a pEC50 of 7.80. Also, the pKi in experiment [2] and in experiment [3] was 9.52 throughout.

`CCc1cnn(C2(CC#N)CN(c3cccn4nc(Nc5cnn(CC(F)F)c5)nc34)C2)c1` [Example 148, 2-[1-[2-[[1-(2,2-difluoroethyl)pyrazol-4-yl]amino]-[1,2,4]triazolo[1,5-a]pyridin-8-yl]-3-(4-ethylpyrazol-1-yl)azetidin-3-yl]acetonitrile]: the pEC50 in experiment [1] was 8.10. The pKi in experiment [2] is 10.00; in experiment [3], 9.40.

For the compound `N#CCC1(c2cccc(Cl)c2)CN(c2cccn3nc(Nc4cnn(CC(=O)N5CCC(NCC6(C#N)CC6)CC5)c4)nc23)C1` [Example 99, 1-[[[1-[2-[4-[[8-[3-(3-chlorophenyl)-3-(cyanomethyl)azetidin-1-yl]-[1,2,4]triazolo[1,5-a]pyridin-2-yl]amino]pyrazol-1-yl]acetyl]-4-piperidyl]amino]methyl]cycl opropanecarbonitrile], the pEC50 in experiment [1] is 7.15. Moreover, the pKi in experiment [2] was 8.70; in experiment [3] it was 8.40.

For `N#CCC1(n2cc(C(F)(F)F)cn2)CN(c2cccn3nc(Nc4cccc(C(=O)N5CCC(N6CCOCC6)CC5)c4)nc23)C1` [Example 112, formic acid;2-[1-[2-[3-(4-morpholinopiperidine-1-carbonyl)anilino]-[1,2,4]triazolo[1,5-a]pyridin-8-yl]-3-[4-(trifluoromethyl)pyrazol-1-yl]azetidin-3-yl]acetonitrile], the pEC50 in experiment [1] is 7.16. Also, the pKi was 9.00 in experiment [2] and 8.34 in experiment [3].

As for `CN1CCN(C(=O)Cn2cc(Nc3nc4c(N5CC(CC#N)(N6CCC(C(F)(F)F)CC6)C5)cccn4n3)cn2)CC1` [Example 11], the pEC50 in experiment [1] is 7.43. For the same compound, the pKi in experiment [2] is 8.89; in experiment [3], 8.24.

In the case of `N#CCC1(n2cc(OC(F)F)cn2)CN(c2cccn3nc(Nc4cn[nH]c4)nc23)C1` [Example 146, 2-[3-[4-(difluoromethoxy)pyrazol-1-yl]-1-[2-(1H-pyrazol-4-ylamino)-[1,2,4]triazolo[1,5-a]pyridin-8-yl]azetidin-3-yl]acetonitrile], the pEC50 in experiment [1] was 8.15. Besides, the pKi is 9.70 in experiment [2] and 9.52 in experiment [3].

In experiment [1], `Cc1nn(C2(CC#N)CN(c3cccn4nc(Nc5cnn(CC(=O)N6CCN(C)CC6)c5)nc34)C2)cc1-c1ccccc1` [Example 114, formic acid;2-[3-(3-methyl-4-phenyl-pyrazol-1-yl)-1-[2-[[1-[2-(4-methylpiperazin-1-yl)-2-oxo-ethyl]pyrazol-4-yl]amino]-[1,2,4]triazolo[1,5-a]pyridin-8-yl]azetidin-3-yl]acetonitrile] gave a pEC50 of 7.80. Moreover, the pKi in experiment [2] and in experiment [3] was 9.52 in each case.

On to `CN1CCN(C(=O)c2cccc(Nc3nc4c(N5CC(CC#N)(n6cc(C(F)(F)F)cn6)C5)cccn4n3)c2)CC1` [Example 110, formic acid;2-[1-[2-[3-(4-methylpiperazine-1-carbonyl)anilino]-[1,2,4]triazolo[1,5-a]pyridin-8-yl]-3-[4-(trifluoromethyl)pyrazol-1-yl]azetidin-3-yl]acetonitrile], for which the pEC50 in experiment [1] was 7.00. Further, the pKi in experiment [2] was 9.10; in experiment [3] it was 9.05.

Turning to `CCc1cnn(C2(CC#N)CN(c3cccn4nc(Nc5cnn(CC(=O)N6CCC(NCC7(C#N)CC7)CC6)c5)nc34)C2)c1` [Example 4, 1-[[(1-[2-[4-([8-[3-(cyanomethyl)-3-(4-ethyl-1H-pyrazol-1-yl)azetidin-1-yl]-[1,2,4]triazolo[1,5-a]pyridin-2-yl]amino)-1H-pyrazol-1-yl]acetyl]piperidin-4-yl)amino]methyl]cyclopropane-1-carbonitrile], the pEC50 in experiment [1] was 7.41. In addition, the figures for the pKi in experiment [2] and in experiment [3] were 9.22 and 8.34, respectively.

`CN1CCN(C(=O)Cn2cc(Nc3nc4c(N5CC(CC#N)(N6CCC(F)(F)CC6)C5)cccn4n3)cn2)CC1` [Example 12, 2-[3-(4,4-difluoro-1-piperidyl)-1-[2-[[1-[2-(4-methylpiperazin-1-yl)-2-oxo-ethyl]pyrazol-4-yl]amino]-[1,2,4]triazolo[1,5-a]pyridin-8-yl]azetidin-3-yl]acetonitrile] showed a pEC50 in experiment [1] of 7.57. The results for the pKi in experiment [2] and in experiment [3] were 9.05 and 8.62, respectively.

Turning to `N#CCC1(n2cc(C(F)(F)F)cn2)CN(c2cccn3nc(Nc4cnn(CCO)c4)nc23)C1` [Example 134, 2-[1-[2-[[1-(2-hydroxyethyl)pyrazol-4-yl]amino]-[1,2,4]triazolo[1,5-a]pyridin-8-yl]-3-[4-(trifluoromethyl)pyrazol-1-yl]azetidin-3-yl]acetonitrile], in experiment [1], the pEC50 is 7.89. Moreover, the pKi in experiment [2] and in experiment [3] was 9.52 in each case.

`Cc1nn(C2(CC#N)CN(c3cccn4nc(Nc5cnn(CC(=O)N6CCN(C)CC6)c5)nc34)C2)cc1C1CCCCC1` [Example 120, 2-[3-(4-cyclohexyl-3-methyl-pyrazol-1-yl)-1-[2-[[1-[2-(4-methylpiperazin-1-yl)-2-oxo-ethyl]pyrazol-4-yl]amino]-[1,2,4]triazolo[1,5-a]pyridin-8-yl]azetidin-3-yl]acetonitrile] showed a pEC50 in experiment [1] of 7.34. In addition, the pKi in experiment [2] was 9.10; in experiment [3] it was 8.21.

Turning to `CN1CCN(C(=O)Cn2cc(Nc3nc4c(N5CC(CC#N)(Cc6ccccc6)C5)cccn4n3)cn2)CC1` [Example 26, 2-[3-benzyl-1-[2-[[1-[2-(4-methylpiperazin-1-yl)-2-oxo-ethyl]pyrazol-4-yl]amino]-[1,2,4]triazolo[1,5-a]pyridin-8-yl]azetidin-3-yl]acetonitrile], the pEC50 in experiment [1] is 7.38. Further, the values for the pKi in experiment [2] and in experiment [3] were 9.40 and 8.68, respectively.

The compound `CCc1cnn(C2(CC#N)CN(c3cccn4nc(Nc5cnn(CC(=O)N6CCC(N(C)CC(C)(C)C#N)CC6)c5)nc34)C2)c1` [Example 52, 3-[[1-[2-[4-[[8-[3-(cyanomethyl)-3-(4-ethylpyrazol-1-yl)azetidin-1-yl]-[1,2,4]triazolo[1,5-a]pyridin-2-yl]amino]pyrazol-1-yl]acetyl]-4-piperidyl]-methyl-amino]-2,2-dimethyl-propanenitrile] gave a pEC50 in experiment [1] of 7.89. Moreover, the pKi is 9.70 in experiment [2] and 9.30 in experiment [3].

As to `CCc1cnn(C2(CC#N)CN(c3cccn4nc(Nc5cnn(CC(=O)N6CCN(CCOC)CC6)c5)nc34)C2)c1` [Example 46, 2-[3-(4-ethylpyrazol-1-yl)-1-[2-[[1-[2-[4-(2-methoxyethyl)piperazin-1-yl]-2-oxo-ethyl]pyrazol-4-yl]amino]-[1,2,4]triazolo[1,5-a]pyridin-8-yl]azetidin-3-yl]acetonitrile], the pEC50 in experiment [1] is 8.15. For the same compound, the pKi in experiment [2] and in experiment [3] was 9.70 in each case.

The compound `CN1CCN(C(=O)Cn2cc(Nc3nc4c(N5CC(CC#N)(n6cc(CO)cn6)C5)cccn4n3)cn2)CC1` [Example 20, 2-[3-[4-(hydroxymethyl)pyrazol-1-yl]-1-[2-[[1-[2-(4-methylpiperazin-1-yl)-2-oxo-ethyl]pyrazol-4-yl]amino]-[1,2,4]triazolo[1,5-a]pyridin-8-yl]azetidin-3-yl]acetonitrile] had a pEC50 in experiment [1] below 6.00. The pKi in experiment [2] was 8.92; in experiment [3] it was 8.02.
